We go through 26 molecules from patent US20240025906A1 (NEURON23, INC., priority 2022, published 2024).

One experiment has as its target T1, TYK2 JH2 (Homo sapiens, UniProt P29597).
T1 construct: purchased DiscoverX (KINOMEscan KdELECT service); host or cells: E. coli BL21-derived (T7 phage display) or HEK-293
The experiment is described as follows: TYK2 JH2 binding assay (KINOMEscan KdELECT competitive binding). The conditions noted are these: TYK2 JH2 domain, KINOMEscan KdELECT (Assay A); read-out: Biochemical TYK2_DiscoverX_JH2_BND_Kd. An outline of the steps: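 Kd values come from qPCR measurement of kinase retained on an immobilized-ligand resin after 1 h room-temperature competition with compound in an 11-point, 3-fold series.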

For experiment [1], the system named is JAK1/TYK2 pSTAT5 (Tyr694/699) in THP-1 cell line. The experiment is described as follows: IFNa-stimulated JAK1/TYK2 pSTAT5 (Tyr694/699) inhibition cellular assay, AlphaLISA. Type of experiment: cell-based. The conditions noted are these: Homo sapiens; THP-1 cells, IFNa-stimulated, AlphaLISA (Assay B); read-out: Cellular_THP1_IFNa-pSTATS_TYK2. An outline of the steps:
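An eight-point 6-fold titration of compound (0.04–10000 nM final) is given to THP-1 cells for 1 h before 30 min of IFNa exposure. Phospho-STAT5 is read by AlphaLISA at 615 nm. IC50 values are derived by logistic regression with bottom set to 0 and Hill slope set to −1.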

T1 sequence (P29597 589-875 limits assumed): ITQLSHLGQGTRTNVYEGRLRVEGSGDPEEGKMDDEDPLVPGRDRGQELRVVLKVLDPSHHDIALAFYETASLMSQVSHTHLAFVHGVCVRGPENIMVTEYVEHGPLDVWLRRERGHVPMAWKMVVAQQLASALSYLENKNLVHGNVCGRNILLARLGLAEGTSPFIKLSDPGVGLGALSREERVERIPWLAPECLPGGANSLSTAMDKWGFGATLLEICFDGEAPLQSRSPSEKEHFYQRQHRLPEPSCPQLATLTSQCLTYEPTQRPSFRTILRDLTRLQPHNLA

Consider `CNc1ncc(-c2nc3cc(N4CC(C)(F)C4)ccc3o2)c2cc(NC(=O)C3CC3)ncc12` [Example 932, N-(5-(5-(3-fluoro-3-methylazetidin-1-yl)benzo[d]oxazol-2-yl)-8-(methylamino)-2,7-naphthyridin-3-yl)cyclopropanecarboxamide], for which, at TYK2 JH2, the Kd is at most 100 nM. Besides, in experiment [1], the IC50 was at most 500 nM.
On the same counts, the results for `CNc1ncc(-c2nc3ccc(OC)cc3s2)c2cc(NC(=O)C3CC3)ncc12` [Example 933, N-(5-(6-methoxybenzo[d]thiazol-2-yl)-8-(methylamino)-2,7-naphthyridin-3-yl)cyclopropanecarboxamide] are at most 100 nM and at most 500 nM.
In the case of `CNc1ncc(-c2nc3cc(N4CC5(CCOCC5)C4)ccc3o2)c2cc(NC(=O)C3CC3)ncc12` [Example 934, N-(5-(5-(7-oxa-2-azaspiro[3.5]nonan-2-yl)benzo[d]oxazol-2-yl)-8-(methylamino)-2,7-napththyridin-3-yl)cyclopropanecarboxamide], the Kd on TYK2 JH2 is at most 100 nM. In addition, the IC50 in experiment [1] is at most 500 nM.
Turning to `CNc1ncc(-c2nc3cc(OC)cc(F)c3o2)c2cc(NC(=O)C3CC3)ncc12` [Example 937, N-(5-(7-fluoro-5-methoxybenzo[d]oxazol-2-yl)-8-(methylamino)-2,7-naphthyridin-3-yl)cyclopropanecarboxamide], the Kd at TYK2 JH2 is at most 100 nM. In experiment [1], the IC50 was at most 500 nM.
The matching figures for `CNc1ncc(-c2nc3cc(N4CCCC(F)(F)C4)ccc3o2)c2cc(NC(=O)C3CC3)ncc12` [Example 938, N-[5-[5-(3,3-difluoro-1-piperidyl)-1,3-benzoxazol-2-yl]-8-(methylamino)-2,7-naphthyridin-3-yl]cyclopropanecarboxamide]: at most 100 nM and at most 500 nM.
On the same counts, the results for `CNc1ncc(-c2nc3cc(-c4ccn(C)n4)ccc3o2)c2cc(NC(=O)C3CC3)ncc12` [Example 939, N-(5-(5-(1-methyl-1H-pyrazol-3-yl)benzo[d]oxazol-2-yl)-8-(methylamino)-2,7-naphthyridin-3-yl)cyclopropanecarboxamide] are at most 100 nM and at most 500 nM.
On the same counts, the results for `CNc1ncc(-c2nc3cc(-c4cnn(C)n4)ccc3o2)c2cc(NC(=O)C3CC3)ncc12` [Example 940, N-(5-(5-(2-methyl-2H-1,2,3-triazol-4-yl)benzo[d]oxazol-2-yl)-8-(methylamino)-2,7-naphthyridin-3-yl)cyclopropanecarboxamide] are at most 100 nM and at most 500 nM.
Consider `CNc1ncc(-c2nc3cc(OCC(C)(C)F)ccc3o2)c2cc(NC(=O)C3CC3)ncc12` [Example 941, N-[5-[5-(2-fluoro-2-methyl-propoxy)-1,3-benzoxazol-2-yl]-8-(methylamino)-2,7-naphthyridin-3-yl]cyclopropanecarboxamide], for which, at TYK2 JH2, the Kd is at most 100 nM. In experiment [1], the IC50 is at most 500 nM.
Regarding `CNc1ncc(-c2nc3cc(N4CCC(F)(F)C4)ccc3o2)c2cc(NC(=O)C3CC3)ncc12` [Example 942, N-(5-(5-(3,3-difluoropyrrolidin-1-yl)benzo[d]oxazol-2-yl)-8-(methylamino)-2,7-naphthyridin-3-yl)cyclopropanecarboxamide], the Kd at TYK2 JH2 was at most 100 nM. The IC50 in experiment [1] is at most 500 nM.
For `CNc1ncc(-c2nc3cc(N4CCC(F)C4)ccc3o2)c2cc(NC(=O)C3CC3)ncc12` (stereo not shown) [Example 943, N-(5-(5-(3-fluoropyrrolidin-1-yl)benzo[d]oxazol-2-yl)-8-(methylamino)-2,7-naphthyridin-3-yl)cyclopropanecarboxamide], the Kd at TYK2 JH2 is at most 100 nM. Also, the IC50 in experiment [1] was at most 500 nM.
On the same counts, the results for `CNc1ncc(-c2nc3cc([C@]45C[C@H](CO4)C5)ccc3o2)c2cc(NC(=O)C3CC3)ncc12` [Example 946, N-(5-(5-((1s,4s)-2-oxabicyclo[2.1.1]hexan-1-yl)benzo[d]oxazol-2-yl)-8-(methylamino)-2,7-naphthyridin-3-yl)cyclopropanecarboxamide] are at most 100 nM and at most 500 nM.
The matching figures for `CNc1ncc(-c2nc3cc(C4(C)CCCO4)ccc3o2)c2cc(NC(=O)C3CC3)ncc12` (stereo not shown) [Example 947, N-(8-(methylamino)-5-(5-(2-methyltetrahydrofuran-2-yl)benzo[d]oxazol-2-yl)-2,7-naphthyridin-3-yl)cyclopropanecarboxamide]: at most 100 nM and at most 500 nM.
On the same counts, the results for `CNc1ncc(-c2nc3cc([C@]4(C)CCCO4)ccc3o2)c2cc(NC(=O)C3CC3)ncc12` [Example 948, (S)—N-(8-(methylamino)-5-(5-(2-methyltetrahydrofuran-2-yl)benzo[d]oxazol-2-yl)-2,7-naphthyridin-3-yl)cyclopropanecarboxamide] are at most 100 nM and at most 500 nM.
`CNc1ncc(C#Cc2ncccn2)c2cc(NC(=O)C3CC3)ncc12` [Example 950, N-(8-(methylamino)-5-(pyrimidin-2-ylethynyl)-2,7-naphthyridin-3-yl)cyclopropanecarboxamide]: at TYK2 JH2, the Kd is at most 100 nM. Besides, in experiment [1], the IC50 was at most 500 nM.
For `CNc1ncc(C#Cc2ccc(N3CCOCC3)cn2)c2cc(NC(=O)C3CC3)ncc12` [Example 951, N-(8-(methylamino)-5-((5-morpholinopyridin-2-yl)ethynyl)-2,7-naphthyridin-3-yl)cyclopropanecarboxamide], the Kd at TYK2 JH2 was at most 100 nM. Also, in experiment [1], the IC50 is at most 500 nM.
The matching figures for `CNc1ncc(C#Cc2ccc(-n3ccnn3)cn2)c2cc(NC(=O)C3CC3)ncc12` [Example 952, N-(5-((5-(1H-1,2,3-triazol-1-yl)pyridin-2-yl)ethynyl)-8-(methylamino)-2,7-naphthyridin-3-yl)cyclopropanecarboxamide]: at most 100 nM and at most 500 nM.
Turning to `CNc1ncc(C#Cc2ccc(-n3nccn3)cn2)c2cc(NC(=O)C3CC3)ncc12` [Example 953, N-(5-((5-(2H-1,2,3-triazol-2-yl)pyridin-2-yl)ethynyl)-8-(methylamino)-2,7-naphthyridin-3-yl)cyclopropanecarboxamide], the Kd on TYK2 JH2 is at most 100 nM. For the same molecule, the IC50 in experiment [1] is at most 500 nM.
On the same counts, the results for `CNc1ncc(C#Cc2ccc(-n3cccn3)cn2)c2cc(NC(=O)C3CC3)ncc12` [Example 954, N-(5-((5-(1H-pyrazol-1-yl)pyridin-2-yl)ethynyl)-8-(methylamino)-2,7-naphthyridin-3-yl)cyclopropanecarboxamide] are at most 100 nM and at most 500 nM.
Take `CNc1ncc(C#Cc2ncccc2C2CC2)c2cc(NC(=O)C3CC3)ncc12` [Example 955, N-(5-((3-cyclopropylpyridin-2-yl)ethynyl)-8-(methylamino)-2,7-naphthyridin-3-yl)cyclopropanecarboxamide]: the Kd on TYK2 JH2 is at most 100 nM. In addition, the IC50 in experiment [1] was at most 500 nM.
The matching figures for `CNc1ncc(C#Cc2ccc3c(c2)CCNC3)c2cc(NC(=O)C3CC3)ncc12` [Example 956, N-(8-(methylamino)-5-((1,2,3,4-tetrahydroisoquinolin-6-yl)ethynyl)-2,7-naphthyridin-3-yl)cyclopropanecarboxamide]: at most 100 nM and at most 500 nM.
For the molecule `CNc1ncc(C#Cc2ccc(-c3cnn(C)n3)cc2)c2cc(NC(=O)C3CC3)ncc12` [Example 957, N-(5-((4-(2-methyl-2H-1,2,3-triazol-4-yl)phenyl)ethynyl)-8-(methylamino)-2,7-naphthyridin-3-yl)cyclopropanecarboxamide], on TYK2 JH2, the Kd was at most 100 nM. For the same molecule, in experiment [1], the IC50 is at most 500 nM.
`CNc1ncc(C#CC23CC(OC)(C2)C3)c2cc(NC(=O)C3CC3)ncc12` [Example 958, N-(5-((3-methoxybicyclo[1.1.1]pentan-1-yl)ethynyl)-8-(methylamino)-2,7-naphthyridin-3-yl)cyclopropanecarboxamide]: on TYK2 JH2, the Kd is at most 100 nM. Besides, the IC50 in experiment [1] is at most 500 nM.
On the same counts, the results for `CNc1ncc(C#Cc2sc(C(C)=O)cc2C)c2cc(NC(=O)C3CC3)ncc12` [Example 959, N-(5-((5-acetyl-3-methylthiophen-2-yl)ethynyl)-8-(methylamino)-2,7-naphthyridin-3-yl)cyclopropanecarboxamide] are at most 100 nM and at most 500 nM.
The matching figures for `CNc1ncc(C#Cc2sccc2CO)c2cc(NC(=O)C3CC3)ncc12` [Example 960, N-(5-((3-(hydroxymethyl)thiophen-2-yl)ethynyl)-8-(methylamino)-2,7-naphthyridin-3-yl)cyclopropanecarboxamide]: at most 100 nM and at most 500 nM.
The matching figures for `CCc1nc(C)c(C#Cc2cnc(NC)c3cnc(NC(=O)C4CC4)cc23)s1` [Example 961, N-(5-((2-ethyl-4-methylthiazol-5-yl)ethynyl)-8-(methylamino)-2,7-naphthyridin-3-yl)cyclopropanecarboxamide]: at most 100 nM and at most 500 nM.
As to `CNc1ncc(C#Cc2ccc(-n3c(=O)ccn3C)cc2)c2cc(NC(=O)C3CC3)ncc12` [Example 962, N-[8-(methylamino)-5-[2-[4-(2-methyl-5-oxo-pyrazol-1-yl)phenyl]ethynyl]-2,7-naphthyridin-3-yl]cyclopropanecarboxamide], at TYK2 JH2, the Kd is at most 100 nM. Also, the IC50 in experiment [1] is at most 500 nM.
